Results reported in US11014912B2, “Cyanopyrrolidine derivatives with activity as inhibitors of USP30” (MISSION THERAPEUTICS LIMITED, priority 2016, dated 2021).

Target: USP30 (Homo sapiens (Human), UniProt Q70CQ3)
Assay: USP30 biochemical IC50 assay
Details: fluorescence polarisation, TAMRA labelled peptide linked to ubiquitin substrate; enzyme and compound incubated 30 min at room temp; read after 2 h; read-out: IC50 range
Procedure: USP30 Biochemical IC50 Assay
Dilution plates were prepared at 21 times the final concentration (2100 μM for a final concentration of 100 μM) in 50% DMSO in a 96-well polypropylene V-bottom plate (Greiner #651201). A typical 8-point dilution series would be 100, 30, 10, 3, 1, 0.3, 0.1, 0.03 μM final. Reactions were performed in duplicate in black 384 well plates (small volume, Greiner 784076) in a final reaction volume of 21 μl. Either 1 μl of 50% DMSO or diluted compound was added to the plate. USP30 was diluted in reaction buffer (40 mM Tris, pH 7.5, 0.005% Tween 20, 0.5 mg/ml BSA, 5 mM beta-mercaptoethanol) to the equivalent of 0.05 μl/well and 10 μl of diluted USP30 was added to the compound. Enzyme and compound were incubated for 30 min at room temp. Reactions were initiated by the addition of 50 nM of TAMRA labelled peptide linked to ubiquitin via an iso-peptide bond as fluorescence polarisation substrate. Reactions were read immediately after addition of substrate and following a 2 h incubation at room temperature. Readings were performed on a Pherastar Plus (BMG Labtech). A Excitation 540 nm; A Emission 590 nm.

Chain of USP30 (Q70CQ3 57-517): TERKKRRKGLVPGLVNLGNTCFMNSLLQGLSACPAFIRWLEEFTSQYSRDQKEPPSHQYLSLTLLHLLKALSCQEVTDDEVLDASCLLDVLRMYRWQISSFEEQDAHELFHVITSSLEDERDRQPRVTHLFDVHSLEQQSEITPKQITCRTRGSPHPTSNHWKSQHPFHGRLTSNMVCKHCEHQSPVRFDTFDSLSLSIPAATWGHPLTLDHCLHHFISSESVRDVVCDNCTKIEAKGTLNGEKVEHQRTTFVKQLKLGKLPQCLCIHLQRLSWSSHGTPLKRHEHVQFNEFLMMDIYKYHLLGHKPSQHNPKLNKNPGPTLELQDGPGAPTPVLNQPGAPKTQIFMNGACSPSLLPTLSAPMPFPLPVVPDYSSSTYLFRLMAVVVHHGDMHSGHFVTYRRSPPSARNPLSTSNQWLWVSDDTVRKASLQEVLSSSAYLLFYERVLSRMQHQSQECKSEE

| Compound | IC50 |
| --- | --- |
| N#Cc1ccc(C2CN(C(=O)C[C@@H]3CCN(C#N)C3)C2)nc1 [Example 57, (S)-6-(1-(2-(1-cyanopyrrolidin-3-yl)acetyl)azetidin-3-yl)nicotinonitrile] | 100 to 1000 nM |
| COc1ccc(C2CN(C(=O)C[C@@H]3CCN(C#N)C3)C2)cc1-c1ccnn1C [Example 40, (S)-3-(2-(3-(4-Methoxy-3-(1-methyl-1H-pyrazol-5-yl)phenyl)azetidin-1-yl)-2-oxoethyl)-pyrrolidine-1-carbonitrile] | 10 to 100 nM |
| N#Cc1ccc(NC(=O)CC2CCN(C#N)C2)nc1 (centres unmarked) [Example 46, N-(5-cyanopyridin-2-yl)-2-(1-cyanopyrrolidin-3-yl)acetamide] | 1000 to 10000 nM |
| Cc1ccc(NC(=O)C=C2CCN(C#N)C2)cc1Cl [Example 19, N-(3-Chloro-4-methylphenyl)-2-(1-cyanopyrrolidin-3-ylidene)acetamide] | 100 to 1000 nM |
| N#CN1CCC(=CC(=O)Nc2ccc(Oc3ccccc3)cc2)C1 [Example 22, 2-(1-Cyanopyrrolidin-3-ylidene)-N-(4-phenoxyphenyl)acetamide] | 10 to 100 nM |
